Holding throughout (format): cell-based
The target of assay [1] is Melanocortin receptor 4 (Homo sapiens, UniProt P32245). In words: Displacement of [125I]NDP-alpha-MSH from cloned human MC4R expressed in HEK293 cells.
The target in assay [2] is Melanocyte-stimulating hormone receptor (Homo sapiens, UniProt Q01726). In words: Displacement of [125I]NDP-alpha-MSH from cloned human MC1R expressed in HEK293 cell. (In general: In a radioligand displacement assay an active substance lowers the binding of a labelled ligand.)
The target of assay [3] is Melanocortin receptor 3 (Homo sapiens, UniProt P41968). The assay is described as follows: Displacement of [125I]NDP-alpha-MSH from cloned human MC3R expressed in HEK293 cell.
The target in assay [4] is Melanocortin receptor 5 (Homo sapiens, UniProt P33032). In words: Displacement of [125I]NDP-alpha-MSH from cloned human MC5R expressed in HEK293 cell.

One may read the pKi as −log10 of the Ki, conventionally taken in molar units. Higher therefore signals a low Ki.

pKi: −log10 of the molar value.

Melanocortin receptor 5, sequence (P33032 whole entry): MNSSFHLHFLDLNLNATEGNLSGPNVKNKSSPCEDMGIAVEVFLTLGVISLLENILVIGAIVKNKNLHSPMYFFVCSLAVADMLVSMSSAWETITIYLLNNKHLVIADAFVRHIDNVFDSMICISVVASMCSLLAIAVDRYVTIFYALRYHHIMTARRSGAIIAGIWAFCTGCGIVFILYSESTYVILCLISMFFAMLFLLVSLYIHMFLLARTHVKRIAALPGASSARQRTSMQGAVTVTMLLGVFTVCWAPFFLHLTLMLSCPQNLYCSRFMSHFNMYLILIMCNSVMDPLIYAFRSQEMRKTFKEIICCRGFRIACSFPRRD
Melanocortin receptor 3, sequence (P41968 whole entry): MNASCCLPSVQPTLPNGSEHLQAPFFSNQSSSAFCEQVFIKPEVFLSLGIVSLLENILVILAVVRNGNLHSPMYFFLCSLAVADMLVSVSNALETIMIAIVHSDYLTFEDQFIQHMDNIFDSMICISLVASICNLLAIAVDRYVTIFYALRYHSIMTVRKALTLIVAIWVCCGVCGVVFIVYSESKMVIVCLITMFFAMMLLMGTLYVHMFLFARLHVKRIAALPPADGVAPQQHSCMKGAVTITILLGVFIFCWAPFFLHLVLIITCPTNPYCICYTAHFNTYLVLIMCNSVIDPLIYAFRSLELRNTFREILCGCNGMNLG
Melanocyte-stimulating hormone receptor, sequence (Q01726 whole entry): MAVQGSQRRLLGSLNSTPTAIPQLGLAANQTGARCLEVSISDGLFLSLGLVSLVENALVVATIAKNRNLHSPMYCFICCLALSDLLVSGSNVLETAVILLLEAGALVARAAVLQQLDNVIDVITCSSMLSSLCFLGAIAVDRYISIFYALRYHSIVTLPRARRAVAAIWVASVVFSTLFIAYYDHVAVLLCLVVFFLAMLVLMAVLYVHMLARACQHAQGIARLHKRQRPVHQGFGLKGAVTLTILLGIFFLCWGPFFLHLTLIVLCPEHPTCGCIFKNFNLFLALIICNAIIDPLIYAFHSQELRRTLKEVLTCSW
Melanocortin receptor 4, sequence (P32245 whole entry): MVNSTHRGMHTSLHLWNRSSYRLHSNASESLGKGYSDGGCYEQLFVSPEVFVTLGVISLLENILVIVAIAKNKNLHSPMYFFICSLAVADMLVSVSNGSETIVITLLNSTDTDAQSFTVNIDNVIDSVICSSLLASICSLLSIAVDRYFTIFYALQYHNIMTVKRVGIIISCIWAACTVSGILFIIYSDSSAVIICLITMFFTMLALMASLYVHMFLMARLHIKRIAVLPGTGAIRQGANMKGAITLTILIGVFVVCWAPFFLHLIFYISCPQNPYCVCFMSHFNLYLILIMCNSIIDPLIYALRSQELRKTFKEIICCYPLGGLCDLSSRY

In assay [1], `CCN(CC)CC(c1ccccc1Cl)N1CCN(C(=O)[C@@H](Cc2ccc(Cl)cc2)NC(=O)CC2NCc3ccccc32)CC1` (stereo in doubt; 41b) gave a negative-log Ki (pKi) of 8.28.
On to `CCN(CC)CC(c1ccccc1F)N1CCN(C(=O)[C@@H](Cc2ccc(Cl)cc2)NC(=O)CC2(C)NCc3ccccc32)CC1` (some centres undefined), for which the pKi in assay [1] was 7.13; in assay [2] it was 4.70; in assay [3] it was 4.80; in assay [4], 5.85.
Consider `CCN(CC)CC(c1ccccc1F)N1CCN(C(=O)[C@@H](Cc2ccc(Cl)cc2)NC(=O)CC2NCCc3ccccc32)CC1` (some centres undefined), for which the pKi is 7.98 in assay [1], 5.52 in assay [2], 5.38 in assay [3] and 6.04 in assay [4].
Compound `CCN(CC)CC(c1ccccc1Cl)N1CCN(C(=O)[C@@H](Cc2ccc(Cl)cc2)NC(=O)CC2NCCc3ccccc32)CC1` (stereo in doubt; 43) gave a negative logarithm of the Ki (pKi) in assay [1] of 8.19.
On the same count and under the same terms, the result for `CCN(CC)CC(c1ccccc1Cl)N1CCN(C(=O)[C@@H](Cc2ccc(Cl)cc2)NC(=O)CC2NCc3ccccc32)CC1` (stereo in doubt; 40a) reads 6.75.
As for `CCN(CC)CC(c1ccccc1F)N1CCN(C(=O)[C@@H](Cc2ccc(Cl)cc2)NC(=O)CC2c3ccccc3CN2C)CC1` (some centres undefined), the pKi is 7.76 in assay [1], 5.07 in assay [2], 5.34 in assay [3] and 5.70 in assay [4].
For the compound `CCN(CC)CC(c1ccccc1F)N1CCN(C(=O)[C@@H](Cc2ccc(Cl)cc2)NC(=O)C2Cc3ccccc3C(C)(C)N2)CC1` (some centres undefined), the negative-log Ki (pKi) in assay [1] was 8.24; in assay [2], 5.15; in assay [3], 5.72; in assay [4], 6.38.
`CCN(CC)CC(c1ccccc1Cl)N1CCN(C(=O)[C@@H](Cc2ccc(Cl)cc2)NC(=O)CC2NCCc3ccccc32)CC1` (stereo in doubt; 42) had a negative-log Ki (pKi) in assay [1] of 7.52.
Consider `CCN(CC)CC(c1ccccc1F)N1CCN(C(=O)[C@@H](Cc2ccc(Cl)cc2)NC(=O)[C@H]2Cc3ccccc3CN2)CC1` (some centres undefined), for which the negative logarithm of the Ki (pKi) in assay [1] is 7.39; in assay [2], 5.24; in assay [3], 5.15; in assay [4] it was 6.02.
For the compound `CCN(CC)CC(c1ccccc1Cl)N1CCN(C(=O)[C@@H](Cc2ccc(Cl)cc2)NC(=O)CC2NCc3ccccc32)CC1` (stereo in doubt; 40b), in assay [1], the negative-log Ki (pKi) is 7.74.
`CCN(CC)CC(c1ccccc1F)N1CCN(C(=O)[C@@H](Cc2ccc(Cl)cc2)NC(=O)c2cc3ccccc3cn2)CC1` (some centres undefined): the pKi in assay [1] was 7.02; in assay [2] it was 5.15; in assay [3], 5.85; in assay [4], 6.04.
In assay [1], `CCN(CC)CC(c1ccccc1Cl)N1CCN(C(=O)[C@@H](Cc2ccc(Cl)cc2)NC(=O)CC2NCc3ccccc32)CC1` (stereo in doubt; 41a) gave a pKi of 6.97.
In the case of `CCN(CC)CC(c1ccccc1F)N1CCN(C(=O)[C@@H](Cc2ccc(Cl)cc2)NC(=O)CC2NCc3ccccc32)CC1` (some centres undefined), the negative logarithm of the Ki (pKi) was 8.14 in assay [1], 5.22 in assay [2], 5.47 in assay [3] and 5.92 in assay [4].

The values are drawn from ChEMBL document CHEMBL1146993, “Synthesis and structure-activity relationships of novel dipeptides and reduced dipeptides as ligands for melanocortin subtype-4 receptor” (Bioorg Med Chem Lett, 2006).
